In patent US7094429B2, “Process for preparing tannate liquid and semi-solid dosage forms” (Kiel Laboratories, Inc., priority 2001, dated 2006):

Assays:
[1] = Conversion process: active dissolved in supernatant of centrifuged MAS/tannic acid conversion samples; settings: for Assay (% Dissolved) 10 mins / Assay (% Dissolved) 20 mins / Assay (% Dissolved) 30 mins: in-situ tannate conversion, centrifuged at 6500 rpm; for Assay (% Dissolved) 10 mins: supernatant after 10 min mixing; for Assay (% Dissolved) 20 mins: supernatant after 20 min mixing; for Assay (% Dissolved) 30 mins: supernatant after 30 min mixing
Procedure: The active solution of carbetapentane citrate is prepared by dissolving 24.4 g of carbetapentane citrate into 60 ml of water. 530 ml of purified water is placed in a mixing tank and 53.7 g of MAS is added in small portions while mixing the water to form a dispersion. Once the dispersion is uniform and lump-free, 46.7 g of tannic acid (TA), (three times that of the free base of the active), is folded into the dispersion using a planetary mixer with a sweep blade. […] The salt solution is then added in small portions, while continuing to stir the MAS/tannic acid dispersion using the planetary mixer. After all of the salt solution is added, the weight is made up to 800 g with purified water. Mixing is continued and 5 g samples of the conversion after ten, twenty and thirty minutes of mixing are taken in a centrifuge tube. The samples are subsequently centrifuged at 6500 rpm and the resulting supernatant solution is assayed for the presence of active. At the end of thirty minutes, a 10 g sample of the conversion is taken for assay of the actives.

[2] = cited from earlier work

Assay (% Dissolved) 10 mins [1] | Assay (% Dissolved) 20 mins [1] | Assay (% Dissolved) 30 mins [1] | amount of active ingredient present in solution at the ten, twenty and thirty minute mixing times ([1]; in-situ tannate conversion in MAS/tannic acid dispersion) | Structure (SMILES) | soluble in water [2]
0.08% | 0.08% | 0.09% | – | CCN(CC)CCOCCOC(=O)C1(c2ccccc2)CCCC1 [Carbetapentane] | –
0.12% | 0.13% | 0.14% | – | CN(C)CCC(c1ccc(Cl)cc1)c1ccccn1 (centres unmarked) [Chlorpheniramine] | –
– | – | – | more than 47.0% | CNC[C@H](O)c1cccc(O)c1.Cl [Phenylephrine HCI] | about 100.0%
37.14% | 47.6% | 47.6% | – | CNC[C@H](O)c1cccc(O)c1 [Phenylephrine] | –
0.10% | 0.10% | 0.11% | – | COc1ccc(CN(CCN(C)C)c2ccccn2)cc1 [Pyrilamine] | –
